The values below come from PMC7703563 (Proceedings of the National Academy of Sciences of the …, 2020).

A word on the Kd: it is the concentration at which binding is half-saturated. As usually defined, the Km is the concentration of substrate that gives half-maximal velocity. Usually kcat stands for the number of substrate molecules converted per active site and unit of time at saturation.

Data set [1] deals with T1, MANEA-Δ97 (human endo-α-1,2-mannosidase catalytic domain, GH99) (Homo sapiens, UniProt Q5SRI9).
T1 sequence (Q5SRI9 98-462): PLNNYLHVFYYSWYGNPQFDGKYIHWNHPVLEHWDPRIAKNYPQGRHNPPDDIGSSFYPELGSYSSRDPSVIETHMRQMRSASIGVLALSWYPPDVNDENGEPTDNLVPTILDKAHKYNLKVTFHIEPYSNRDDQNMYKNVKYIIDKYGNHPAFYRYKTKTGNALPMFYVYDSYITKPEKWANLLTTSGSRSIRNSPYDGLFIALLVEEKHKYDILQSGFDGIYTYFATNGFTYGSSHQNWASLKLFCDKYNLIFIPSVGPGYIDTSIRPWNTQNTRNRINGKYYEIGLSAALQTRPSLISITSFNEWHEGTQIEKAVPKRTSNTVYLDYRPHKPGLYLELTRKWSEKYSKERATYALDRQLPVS
Kind of data set: isothermal titration calorimetry. In kind it is binding.

For data set [2], the target named is T1, MANEA-Δ97 (human endo-α-1,2-mannosidase catalytic domain, GH99). Kind of data set: X-ray crystal structure. In kind it is binding. Conditions: ternary complex with GlcIFG; +1/+2 subsites.
Substrate in the data set “purified protein”: CO[C@H]1O[C@H](CO)[C@@H](O)[C@H](O)[C@@H]1O[C@H]1O[C@H](CO)[C@@H](O)[C@H](O)[C@@H]1O[C@H]1O[C@H](CO)[C@@H](O)[C@H](O[C@H]2O[C@H](CO)[C@@H](O)[C@H](O)[C@H]2O)[C@@H]1O
The experiment in a line: purified protein. Conditions: α-mannosidase-coupled release of mannose.

`OC[C@H]1NC[C@@H](O)[C@@H](O[C@H]2O[C@H](CO)[C@@H](O)[C@H](O)[C@H]2O)[C@@H]1O` [GlcDMJ] displayed a Kd in data set [1] of 1020 nM.

For the molecule `OC[C@H]1O[C@H](O[C@@H]2C(O)O[C@H](CO)[C@@H](O)[C@@H]2O)[C@@H](O)[C@@H](O)[C@@H]1O` (stereo partly drawn) [α-1,2-mannobiose], in data set [2], the X-ray crystal structure entry is “a ternary complex with GlcIFG and α-1,2-mannobiose”.

B1: MANEA-Δ97 (human endo-α-1,2-mannosidase catalytic domain, GH99) (Homo sapiens) (protein)
chain: T1 sequence (Q5SRI9 98-462)
B1: in “purified protein”, the Michaelis-Menten constant (Km) turned out to be 426 ± 33 µM and the kcat came out at 0.462 ± 0.0167 s⁻¹.
